The test system of assay [1] is HT29 cells, phospho-ERK1/2 western blot, 24 h. Nature of the assay: altered phosphorylated MAPK1 amounts in cells – HT29 cells, chemiluminescent western blot, powder samples, counter-screen for KLF5 inhibitor project, late-stage follow-up (AID 588655). The conditions noted are these: measured here: phospho-ERK fold change vs DMSO; at 10 µM.
Assay [2] deals with Mitogen-activated protein kinase 1 (Homo sapiens) (UniProt P28482). The description is as above. The settings on record: HT29 cells, phospho-ERK1/2 western blot, 24 h; at 10 µM; stronger effect = higher value. In general terms: A western blot detects proteins with antibodies after separation by electrophoresis.
Sequence of Mitogen-activated protein kinase 1 (Homo sapiens) (P28482 whole entry, looked up): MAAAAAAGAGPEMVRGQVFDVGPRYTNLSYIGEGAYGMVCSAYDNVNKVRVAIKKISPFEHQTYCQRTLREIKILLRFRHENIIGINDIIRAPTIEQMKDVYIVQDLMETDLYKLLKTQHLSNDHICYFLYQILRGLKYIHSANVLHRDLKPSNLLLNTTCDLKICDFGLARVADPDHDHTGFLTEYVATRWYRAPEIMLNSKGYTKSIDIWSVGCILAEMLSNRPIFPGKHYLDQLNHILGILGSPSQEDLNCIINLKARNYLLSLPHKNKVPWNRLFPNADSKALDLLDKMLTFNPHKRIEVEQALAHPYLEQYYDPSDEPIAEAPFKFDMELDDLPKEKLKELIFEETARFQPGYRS

For `CN(C(=O)CNC(=O)/C=C/c1cccc(Cl)c1)C1CCS(=O)(=O)CC1`, the fold change in assay [1] is -2.02. Further, the phospho-ERK1/2 band inhibition vs DMSO (stronger effect = higher value) in assay [2] is 50.5%.

Regarding `CN(C(=O)CNC(=O)/C=C/c1cccc(Cl)c1)C1CCS(=O)(=O)C1` (stereo unspecified), the fold change in assay [1] is -1.52. The phospho-ERK1/2 band inhibition vs DMSO (stronger effect = higher value) in assay [2] is 34.3%.

Regarding `CN(C(=O)COC(=O)/C=C/c1cccc([N+](=O)[O-])c1)C1CCS(=O)(=O)C1` (stereo unspecified), the fold change in assay [1] was -1.63. The phospho-ERK1/2 band inhibition vs DMSO (stronger effect = higher value) in assay [2] is 38.6%.

Values taken from PubChem BioAssay AID588655 (The Scripps Research Institute Molecular Screening Center, 2011).
